Test results from patent US7566731B2, “Hetaryl substituted homotetramic and homotetronic acids and their use thereof as pesticides” (Bayer CropScience AG, priority 2001, dated 2009).

How the values were obtained:
Assay type in all cases: in vivo
Avena fatua = test: Post-emergence test, Avena fatua; settings: 125 g ai/ha, after three weeks
Experimental: (§1) To prepare a suitable active compound preparation, 1 part by weight of active compound is mixed with the stated amount of solvent, the stated amount of emulsifier is added, and the concentrate is diluted with water to the desired concentration. Test plants which have a height of 5 to 15 cm are sprayed with the active compound preparation in such a way that the active compound quantities desired in each case are applied per unit area. The concentration of the spray mixture is chosen such that the active compound quantities desired in each case are applied in 1000 l of water/ha. After three weeks, the degree of damage to the plants is scored in % damage in comparison with the development of the untreated control. The figures denote: • 0%=no effect (like untreated control) • 100%=total destruction

Digitaria [1] = test: Post-emergence test, Digitaria; settings: 125 g ai/ha, after three weeks
Experimental: as §1

Alopecurus = test: Post-emergence test, Alopecurus; settings: 125 g ai/ha, after three weeks
Experimental: as §1

[2] = system: fall armyworm caterpillars (Spodoptera frugiperda); test: Spodoptera frugiperda test; settings: 500 ppm; after 7 days; cabbage leaves immersed
Experimental: (§2) To prepare a suitable active compound preparation, 1 part by weight of active compound is mixed with the stated amounts of solvent and emulsifier and the concentrate is diluted to the desired concentration with emulsifier-containing water. Cabbage leaves (Brassica oleracea) are treated by immersing in the active compound preparation of the desired concentration and populated with larvae of the fall armyworm caterpillars (Spodoptera frugiperda) while the leaves are still moist. After the desired time, the destruction rate is determined in %. 100% means that all the caterpillars have been destroyed; 0% means that none of the caterpillars have been destroyed.

[3] = system: green peach aphid (Myzus persicae); test: Myzus test; settings: 500 ppm; after 6 days; cabbage leaves immersed
Experimental: To prepare a suitable active compound preparation, 1 part by weight of active compound is mixed with the stated amounts of solvent and emulsifier and the concentrate is diluted to the desired concentration with emulsifier-containing water. Cabbage leaves (Brassica oleracea) which are severely infested by the green peach aphid (Myzus persicae) are treated by immersing into the active compound preparation of the desired concentration. After the desired time, the destruction rate is determined in %. 100% means that all of the aphids have been destroyed; 0% means that none of the aphids have been destroyed.

Matricaria = test: Pre-emergence test, Matricaria; settings: 125 g ai/ha, after three weeks
Experimental: (§3) To prepare a suitable active compound preparation, 1 part by weight of active compound is mixed with the stated amount of solvent, the stated amount of emulsifier is added, and the concentrate is diluted with water to the desired concentration. Seeds of the test plants are sown in normal soil. After approximately 24 hours, the soil is sprayed with the active compound preparation in such a way that the active compound quantities desired in each case are applied per unit area. The concentration of the spray mixture is chosen such that the active compound quantities desired in each case are applied in 1000 l of water/ha. After three weeks, the degree of damage to the plants is scored in % damage in comparison with the development of the untreated control. The figures denote: • 0%=no effect (like untreated control) • 100%=total destruction

Meloidogyne incognita = test: Meloidogyne test; settings: active compound concentration 20 ppm; lettuce in sand
Experimental: To prepare a suitable active compound preparation, 1 part by weight of active compound is mixed with the stated amounts of solvent and emulsifier and the concentrate is diluted to the desired concentration with water. Containers are filled with sand, active compound solution, Meloidogyne incognita egg/larval suspension and lettuce seeds. The lettuce seeds germinate and the plantlets develop. The galls develop on the roots. After the desired time, the nematicidal efficacy is determined in % with reference to gall formation. 100% means that no galls were found; 0% means that the number of galls on the treated plants corresponds to that of the untreated control.

Setaria [4] = test: Pre-emergence test, Setaria; settings: 125 g ai/ha, after three weeks
Experimental: as §3

[5] = system: two-spotted spider mite (Tetranychus urticae); test: Tetranychus test (OP resistant/immersion treatment); settings: 100 ppm; bean plants immersed
Experimental: To prepare a suitable active compound preparation, 1 part by weight of active compound is mixed with the stated amounts of solvent and emulsifier and the concentrate is diluted to the desired concentration with emulsifier-containing water. Bean plants (Phaseolus vulgaris) which are severely infested by all stages of the two-spotted spider mite (Tetranychus urticae) are immersed into an active compound preparation of the desired concentration. After the desired time, the efficacy is determined in %. 100% means that all of the spider mites have been destroyed; 0% means that none of the spider mites have been destroyed.

Digitaria [6] = test: Pre-emergence test, Digitaria; settings: 125 g ai/ha, after three weeks
Experimental: as §3

Sugar beet [7] = test: Post-emergence test, Sugar beet; settings: 125 g ai/ha, after three weeks
Experimental: as §1

Setaria [8] = test: Post-emergence test, Setaria; settings: 125 g ai/ha, after three weeks
Experimental: as §1

Lolium = test: Pre-emergence test, Lolium; settings: 125 g ai/ha, after three weeks
Experimental: as §3

Sugar beet [9] = test: Pre-emergence test, Sugar beet; settings: 125 g ai/ha, after three weeks
Experimental: as §3

Wheat = test: Post-emergence test, Wheat; settings: 125 g ai/ha, after three weeks
Experimental: as §1

[10] = system: larvae of the mustard beetle (Phaedon cochleariae); test: Phaedon larvae test; settings: after 7 days, cabbage leaves immersed
Experimental: as §2, with “mustard beetle (Phaedon cochleariae)” for “fall armyworm caterpillars (Spodoptera frugiperda)”, “beetle larvae” for “caterpillars”

## Cc1sc(-c2ccc(Cl)cc2)nc1C1=C(O)C(C)(C)C(C)(C)OC1=O [Example I-2-a-1]
Avena fatua
  degree of damage to the plants (% damage), Avena fatua: 90%
Digitaria [1]
  degree of damage to the plants (% damage), Digitaria: 95%
Alopecurus
  degree of damage to the plants (% damage), Alopecurus: 90%
[2]
  destruction rate: 100%
[3]
  destruction rate: 90%
Matricaria
  degree of damage to the plants (% damage), Matricaria: 95%
Meloidogyne incognita
  destruction rate (nematicidal efficacy with reference to gall formation): 100%
Setaria [4]
  degree of damage to the plants (% damage), Setaria: 100%
[5]
  destruction rate (efficacy): 100%
Digitaria [6]
  degree of damage to the plants (% damage), Digitaria: 100%
Sugar beet [7]
  degree of damage to the plants (% damage), Sugar beet: 0%
Setaria [8]
  degree of damage to the plants (% damage), Setaria: 100%
Lolium
  degree of damage to the plants (% damage), Lolium: 100%
Sugar beet [9]
  degree of damage to the plants (% damage), Sugar beet: 0%
Wheat
  degree of damage to the plants (% damage), Wheat: 10%
[10]; 500 ppm
  destruction rate: 100%

## CCOC(=O)OC1=C(c2nc(-c3ccc(Cl)cc3)sc2C)C(=O)NC(C)(C)C1 [Example I-1-c-1]
Meloidogyne incognita
  destruction rate (nematicidal efficacy with reference to gall formation): 100%

## Cc1sc(-c2ccc(Cl)cc2)nc1C1=C(O)CC(C)(C)NC1=O [Example I-1-a-1]
[5]
  destruction rate (efficacy): 98%
[10]; 1000 ppm
  destruction rate: 100%
